The values below come from ChEMBL document CHEMBL1132210, “Ligands for the tyrosine kinase p56lck SH2 domain: discovery of potent dipeptide derivatives with monocharged, nonhydrolyzable phosphate replacements” (J Med Chem, 1999).

Non-standard residues stand in square brackets, D forms with d. Residues, ends and D or L forms follow the SMILES beside them. Phe(4-CH2COOH) = N[C@@H](Cc1ccc(CC(=O)O)cc1)C(=O)O

In the test the target is Tyrosine-protein kinase Lck (Homo sapiens, UniProt P06239). Briefly: Binding affinity towards p56 Lck tyrosine kinase SH2 domain was determined by biological assay.
Tyrosine-protein kinase Lck, sequence (P06239 whole entry, the tested form may be a part): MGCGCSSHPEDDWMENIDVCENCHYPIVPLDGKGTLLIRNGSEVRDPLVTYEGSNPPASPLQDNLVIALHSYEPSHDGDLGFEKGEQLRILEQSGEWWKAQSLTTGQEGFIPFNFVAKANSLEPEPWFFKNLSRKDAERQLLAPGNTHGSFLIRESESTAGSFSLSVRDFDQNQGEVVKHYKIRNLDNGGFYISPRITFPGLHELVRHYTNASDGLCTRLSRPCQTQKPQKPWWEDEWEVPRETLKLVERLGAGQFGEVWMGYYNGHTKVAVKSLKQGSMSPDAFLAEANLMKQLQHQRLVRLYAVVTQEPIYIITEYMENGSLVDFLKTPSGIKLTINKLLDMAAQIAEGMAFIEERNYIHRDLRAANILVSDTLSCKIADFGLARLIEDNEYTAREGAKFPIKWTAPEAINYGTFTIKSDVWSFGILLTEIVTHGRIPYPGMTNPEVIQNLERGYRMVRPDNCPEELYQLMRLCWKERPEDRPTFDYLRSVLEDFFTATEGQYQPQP
For orientation: Kd means the free concentration of one partner at which half of the binding sites on the other are occupied at equilibrium, for simple one-to-one binding. Read a high Kd as lower affinity. In turn, `COc1ccc(CNC(=O)[C@H](CCC(=O)O)NC(=O)[C@H](Cc2ccc(CC(=O)O)cc2)NC(C)=O)cc1` gave a Kd of 50 µM.

The molecule `COc1ccc(CNC(=O)[C@H](CCC(=O)O)NC(=O)[C@H](Cc2ccc(C(O)C(=O)O)cc2)NC(=O)Cc2cccc3ccccc23)cc1` (stereo partly specified) registered a Kd of 2 µM. This Kd is about 25-fold lower than that of the molecule before.

Regarding `COc1ccc(CNC(=O)[C@H](CCC(=O)O)NC(=O)[C@H](Cc2ccc(CS(=O)(=O)O)cc2)NC(C)=O)cc1`, the Kd was 25 µM.

The molecule `COc1ccc(CNC(=O)[C@H](CCC(=O)O)NC(=O)[C@H](Cc2ccc(NC(=O)C(=O)O)cc2)NC(=O)Cc2ccccc2)cc1` gave a Kd of 17 µM.

`COc1ccc(CNC(=O)[C@H](CCC(=O)O)NC(=O)[C@H](Cc2ccc(NC(=O)C(=O)O)cc2)NC(=O)c2ccccc2)cc1` had a Kd of 32 µM.

The molecule `COc1ccc(CNC(=O)[C@H](CCC(=O)O)NC(=O)[C@H](Cc2ccc(CS(=O)(=O)O)cc2)NC(=O)Cc2cccc3ccccc23)cc1` displayed a Kd of 4 µM.

In the case of `COc1ccc(CNC(=O)[C@H](CCC(=O)O)NC(=O)[C@H](Cc2ccc(C(=O)C(=O)O)cc2)NC(C)=O)cc1`, the Kd turned out to be 65 µM.

On to `COc1ccc(CNC(=O)[C@H](CCC(=O)O)NC(=O)[C@H](Cc2ccc(OP(=O)(O)O)cc2)NC(=O)Cc2cccc3ccccc23)cc1`, for which the Kd was 0.04 µM.

The molecule `CC[C@H](C)[C@H](NC(=O)[C@H](CCC(=O)O)NC(=O)[C@H](CCC(=O)O)NC(=O)[C@H](Cc1ccc(CC(=O)O)cc1)NC(C)=O)C(=O)O` (Ac-[Phe(4-CH2COOH)]EEI-OH) returned a Kd of 42 µM.

For `COc1ccc(CNC(=O)[C@H](CCC(=O)O)NC(=O)[C@H](Cc2ccc(NC(=O)C(=O)O)cc2)NC(C)=O)cc1`, the Kd was determined as 42 µM.

In turn, `COc1ccc(CNC(=O)[C@H](CCC(=O)O)NC(=O)[C@H](Cc2ccc(NC(=O)C(=O)O)cc2)NC(=O)CCc2ccccc2)cc1` yielded a Kd of 13 µM. This Kd lies about 3.2-fold lower than the previous one.

Molecule `COc1ccc(CNC(=O)[C@H](CCC(=O)O)NC(=O)[C@H](Cc2ccc(CCC(=O)O)cc2)NC(C)=O)cc1` came in with a Kd of 184 µM.

`COc1ccc(CNC(=O)[C@H](CCC(=O)O)NC(=O)[C@H](Cc2ccc(CC(=O)O)cc2)NC(=O)Cc2cccc3ccccc23)cc1`: the affinity, expressed as Kd, was 5 µM.

For `COc1ccc(CNC(=O)[C@H](CCC(=O)O)NC(=O)[C@H](Cc2ccc(C(O)C(=O)O)cc2)NC(C)=O)cc1` (stereo partly specified), binding was put at a Kd of 15 µM.

`COc1ccc(CNC(=O)[C@H](CCC(=O)O)NC(=O)[C@H](Cc2ccc(C(F)(F)C(=O)O)cc2)NC(C)=O)cc1` came in with a Kd of 166 µM. Compared with the last molecule, the Kd is about 11-fold higher.

For `COc1ccc(CNC(=O)[C@H](CCC(=O)O)NC(=O)[C@H](Cc2ccc(NC(=O)C(=O)O)cc2)NC(=O)Cc2ccc3ccccc3c2)cc1`, the affinity, expressed as Kd, was 3 µM. Against the preceding molecule, the Kd is about 55-fold lower.
